Patent publication US10391151B2, “Dilute surfactant or isolated surfactant protein solution for the reduction of surface tension in the lung” (The Trustees of the Stevens Institute of Technology, priority 2015, dated 2019)
Where no end group is shown, it is not given here. The star is where a group is joined. Biotin = O=C1N[C@H]2[C@H](CS[C@H]2CCCCC(=O)*)N1

Assays:
[1] = system: heterogeneously flooded region of the isolated, perfused adult rat lung; assay: Ventilation injury score in the isolated, perfused adult rat lung (Method 2); settings: for Injury score: flooding solution normal saline with 5% albumin, solutes at about the concentrations present in 1% SURVANTA solution, n=1 or 2/group (FIG. 2A)
From the text: Method 2. Ventilation ‘injury score’ in the adult rat lung. In the isolated, perfused adult rat lung, a surface alveolus is micropunctured and a non-fluorescent test solution is instilled. In experimental regions, a sufficiently large volume of liquid is instilled to generate a pattern of heterogeneous alveolar flooding; in control regions, a sufficiently small volume of liquid is instilled that the liquid spontaneously clears from the region, leaving behind a micropunctured-but-aerated region. Fluorescent dye, at a low concentration verified not to alter surface tension, is included in the perfusate. The region is imaged by confocal microscopy over a five minute baseline period at a constant transpulmonary pressure of 5 cm H2O. Five ventilation cycles are supplied to the lung, at 0.33 Hz with a positive end-expiratory pressure of 15 cm H2O and a tidal volume of 6 ml/kg body weight. The lung is then returned to a constant transpulmonary pressure of 5 cm H2O and imaged for 10 additional minutes. Alveolar liquid fluorescence at all time points is normalized by capillary fluorescence.
At baseline, alveolar liquid fluorescence (in flooded alveoli of experimental regions or in the liquid lining layer of control, aerated regions) is low and constant in all regions. Following ventilation, alveolar liquid fluorescence remains unchanged in aerated regions but continually increases with time in heterogeneously flooded regions. […] The increase above baseline in normalized alveolar liquid fluorescence at the last time point of the experiment is used as an injury score. The injury score, which indicates the rate of increase of normalized fluorescence following ventilation, correlates with surface tension of the test solution.
2. degree of ventilation induced injury in a region of the isolated, perfused adult rat lung in which surface alveoli have been flooded, in a heterogeneous fashion, with a test solution;

[2] = system: surface alveoli of the isolated adult rat lung; assay: Surface tension determination in alveoli of the isolated adult rat lung (Method 1)
Method: Method 1. Surface tension determination in the adult rat lung. […] In flooded alveoli, the air-liquid interface forms a meniscus, at which surface tension is determined as follows. Alveolar air pressure is determined with a transducer at the trachea of the constantly-inflated lung. Alveolar liquid phase pressure is determined by servo-nulling pressure measurement. Meniscus radius of curvature is determined by confocal microscopy. Surface tension is calculated according to the Lapalce relation.
1. direct surface tension determination in surface alveoli of the isolated adult rat lung, which contains native lung surfactant, following alveolar instillation of a test solution;

[3] = 10 μM NaOH alone, without dextran, in the absence or presence of SURVANTA

“sSP-Css-ion lock-B: a variant of sSP-Css-ion lock with a biotinylated N-terminal (Biotin-GIPSSPVHLKRLLIVVVVVELIVKVIVGALLMGL)” was tested, and the Injury score [1] was “lower injury score”.

For `CCCCCCCCCCCCCCCC(=O)OC[C@H](COP(=O)([O-])OCC[N+](C)(C)C)OC(=O)CCCCCCCCCCCCCCC` [DPPC, dipalmitoylphosphatidylcholine, reference compound], the Injury score [1] was “Only SP-C and sSP-C lower injury score”.

In the case of fibrinogen, the “Facilitation of the surface activity of 1 vol % SURVANTA” value ([2]; 5 w/v % solute, adult rat lung, dextran negative charge imparted by 10 μM NaOH (FIGS. 1A and B)) is reported as “facilitate”.

In the case of `[Na+].[OH-]` [NaOH], the “Effect on surface tension” value [2, 3] is reported as “no effect” and the “Effect on lung injury” value [1, 3] is reported as “no effect”.

B1: SP-B: surfactant protein B isolated from pulmonary alveolar proteinosis patients (protein, UniProt P07988 201-279, looked up)
Pulmonary …: FPIPLPYCWLCRALIKRIQAMIPKGALAVAVAQVCRVVPLVAGGICQCLAERYSVILLDTLLGRMLPQLVCRLVLRCSM
modifications: Pulmonary surfactant-associated protein B
notes: surfactant protein B isolated from pulmonary alveolar proteinosis patients
In the case of B1, the Injury score [1] is reported as “Only SP-C and sSP-C lower injury score”.
